Data reported in ChEMBL document CHEMBL4725279, “Design and synthesis of peptide-based chimeric molecules to induce degradation of the estrogen and androgen receptors” (Bioorg Med Chem, 2020).

How the values were obtained:
Assay type in all cases: cell-based
[1] = biological target: T1, Protein cereblon/Estrogen receptor (Homo sapiens) (UniProt P03372+Q96SW2); test: Protac activity at CRBN/ERalpha in CRBN siRNA-transfected human MCF7 cells assessed as induction of ERalpha protein degradation by measuring ERalpha protein level at 20 uM incubated for 8 hrs by western blot analysis relative to lamin B
T1 sequence (P03372 whole entry, looked up): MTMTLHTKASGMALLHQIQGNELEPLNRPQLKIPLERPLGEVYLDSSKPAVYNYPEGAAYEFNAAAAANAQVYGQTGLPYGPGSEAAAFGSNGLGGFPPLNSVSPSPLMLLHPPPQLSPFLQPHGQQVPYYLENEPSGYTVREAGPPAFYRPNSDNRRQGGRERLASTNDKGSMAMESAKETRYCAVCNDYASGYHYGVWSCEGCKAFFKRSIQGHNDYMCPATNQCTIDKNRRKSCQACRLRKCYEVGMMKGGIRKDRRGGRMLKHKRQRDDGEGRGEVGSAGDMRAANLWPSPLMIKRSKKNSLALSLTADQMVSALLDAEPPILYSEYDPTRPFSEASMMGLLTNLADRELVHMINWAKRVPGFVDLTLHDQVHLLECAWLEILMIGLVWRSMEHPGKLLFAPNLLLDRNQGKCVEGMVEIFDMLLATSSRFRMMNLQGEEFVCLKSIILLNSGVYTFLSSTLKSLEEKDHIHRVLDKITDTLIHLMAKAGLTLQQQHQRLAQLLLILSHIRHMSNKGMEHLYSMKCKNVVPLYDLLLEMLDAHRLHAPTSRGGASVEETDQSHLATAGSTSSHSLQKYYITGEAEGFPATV
T1 sequence (Q96SW2 whole entry, looked up): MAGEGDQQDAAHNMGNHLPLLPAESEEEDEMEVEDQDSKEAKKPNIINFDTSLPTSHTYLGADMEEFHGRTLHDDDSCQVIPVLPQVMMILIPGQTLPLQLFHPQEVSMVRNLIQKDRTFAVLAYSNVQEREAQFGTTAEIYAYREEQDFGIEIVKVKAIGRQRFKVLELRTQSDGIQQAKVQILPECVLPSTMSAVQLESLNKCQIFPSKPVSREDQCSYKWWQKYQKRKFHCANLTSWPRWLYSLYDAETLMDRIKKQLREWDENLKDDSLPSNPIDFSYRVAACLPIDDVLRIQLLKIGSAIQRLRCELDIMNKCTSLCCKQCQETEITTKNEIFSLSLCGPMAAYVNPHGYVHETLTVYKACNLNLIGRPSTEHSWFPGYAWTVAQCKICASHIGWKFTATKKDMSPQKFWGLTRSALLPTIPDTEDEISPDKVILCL

[2] = biological target: T1, Protein cereblon/Estrogen receptor (Homo sapiens); test: Protac activity at CRBN/ERalpha in human MCF7 cells assessed as induction of ERalpha protein degradation by measuring ERalpha protein level at 20 uM incubated for 8 hrs in presence of ubiquitin activating inhibitor MLN7243 by western blot analysis relative to lamin B
[3] = biological target: T2, Protein cereblon/Androgen receptor (Homo sapiens) (UniProt P10275+Q96SW2); test: Protac activity at CRBN/AR in human MCF7 cells assessed as induction of AR protein degradation by measuring AR protein level at 5 uM incubated for 8 hrs by western blot analysis relative to lamin B
T2 sequence (P10275 whole entry, looked up): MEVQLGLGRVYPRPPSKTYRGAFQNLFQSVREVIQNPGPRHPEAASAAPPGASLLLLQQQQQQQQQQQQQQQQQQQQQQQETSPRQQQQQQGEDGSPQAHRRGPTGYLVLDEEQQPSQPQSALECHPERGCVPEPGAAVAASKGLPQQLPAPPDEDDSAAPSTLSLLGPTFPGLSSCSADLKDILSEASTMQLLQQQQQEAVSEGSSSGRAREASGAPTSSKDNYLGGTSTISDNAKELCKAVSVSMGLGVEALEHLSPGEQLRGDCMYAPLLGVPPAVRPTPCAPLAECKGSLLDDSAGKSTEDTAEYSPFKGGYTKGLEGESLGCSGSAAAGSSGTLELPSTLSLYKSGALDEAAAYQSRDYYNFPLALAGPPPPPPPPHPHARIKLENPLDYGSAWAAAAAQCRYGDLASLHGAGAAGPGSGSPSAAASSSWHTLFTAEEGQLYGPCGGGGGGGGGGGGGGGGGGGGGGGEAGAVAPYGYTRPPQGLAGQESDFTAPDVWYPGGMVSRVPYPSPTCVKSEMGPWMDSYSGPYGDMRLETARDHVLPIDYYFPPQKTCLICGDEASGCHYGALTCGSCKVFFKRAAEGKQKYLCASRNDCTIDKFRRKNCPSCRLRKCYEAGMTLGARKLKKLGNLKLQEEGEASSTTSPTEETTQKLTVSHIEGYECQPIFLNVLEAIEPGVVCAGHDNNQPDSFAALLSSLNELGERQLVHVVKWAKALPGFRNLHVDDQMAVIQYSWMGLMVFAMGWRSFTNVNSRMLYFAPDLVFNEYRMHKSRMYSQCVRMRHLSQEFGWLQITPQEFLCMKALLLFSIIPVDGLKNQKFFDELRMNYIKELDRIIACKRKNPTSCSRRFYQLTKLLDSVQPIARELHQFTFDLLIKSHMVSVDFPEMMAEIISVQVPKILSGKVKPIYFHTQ
T2 sequence (Q96SW2 whole entry, looked up): as the sequence (Q96SW2 whole entry, looked up) above

[4] = biological target: T3, Protein cereblon/Aryl hydrocarbon receptor (Homo sapiens, UniProt P35869+Q96SW2); test: Protac activity at CRBN/AhR in human MCF7 cells assessed as induction of AhR protein degradation by measuring AhR protein level at 20 uM incubated for 8 hrs by western blot analysis relative to lamin B; conditions: mcf7, 8 h
T3 sequence (P35869 whole entry): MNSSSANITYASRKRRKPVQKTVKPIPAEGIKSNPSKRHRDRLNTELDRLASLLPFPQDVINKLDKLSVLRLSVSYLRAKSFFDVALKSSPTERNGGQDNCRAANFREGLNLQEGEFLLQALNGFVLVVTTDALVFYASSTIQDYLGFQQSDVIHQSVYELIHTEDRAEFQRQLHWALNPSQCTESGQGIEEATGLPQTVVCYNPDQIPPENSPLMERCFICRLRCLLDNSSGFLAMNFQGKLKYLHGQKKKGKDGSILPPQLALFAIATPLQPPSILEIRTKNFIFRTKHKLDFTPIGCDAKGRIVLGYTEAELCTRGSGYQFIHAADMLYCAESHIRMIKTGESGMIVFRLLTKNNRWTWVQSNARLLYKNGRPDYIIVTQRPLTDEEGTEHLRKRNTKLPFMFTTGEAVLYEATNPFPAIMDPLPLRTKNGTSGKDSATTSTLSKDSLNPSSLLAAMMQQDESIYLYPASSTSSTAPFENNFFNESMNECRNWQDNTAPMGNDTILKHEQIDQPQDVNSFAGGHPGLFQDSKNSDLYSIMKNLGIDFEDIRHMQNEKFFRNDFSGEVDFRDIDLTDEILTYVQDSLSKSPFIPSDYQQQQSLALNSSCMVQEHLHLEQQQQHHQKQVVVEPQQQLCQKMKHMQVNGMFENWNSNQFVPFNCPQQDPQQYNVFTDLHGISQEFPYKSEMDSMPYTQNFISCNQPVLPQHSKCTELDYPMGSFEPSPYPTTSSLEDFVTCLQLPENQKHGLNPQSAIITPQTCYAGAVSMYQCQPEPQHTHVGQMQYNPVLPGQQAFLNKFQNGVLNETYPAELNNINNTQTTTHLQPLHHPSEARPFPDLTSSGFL
T3 sequence (Q96SW2 whole entry): as the sequence (Q96SW2 whole entry, looked up) above

[5] = biological target: T2, Protein cereblon/Androgen receptor (Homo sapiens); test: Protac activity at CRBN/AR in human MCF7 cells assessed as induction of AR protein degradation by measuring AR protein level at 10 uM incubated for 24 hrs by western blot analysis relative to lamin B
[6] = biological target: T3, Protein cereblon/Aryl hydrocarbon receptor; test: Protac activity at CRBN/AhR in human MCF7 cells assessed as induction of AhR protein degradation by measuring AhR protein level at 5 uM incubated for 8 hrs by western blot analysis relative to lamin B; conditions: mcf7, 8 h
[7] = biological target: T3, Protein cereblon/Aryl hydrocarbon receptor; test: Protac activity at CRBN/AhR in human MCF7 cells assessed as induction of AhR protein degradation by measuring AhR protein level at 20 uM incubated for 8 hrs in presence of proteasome inhibitor, MG132 by western blot analysis relative to lamin B; conditions: mcf7, 8 h
[8] = biological target: T2, Protein cereblon/Androgen receptor (Homo sapiens); test: Protac activity at CRBN/AR in human MCF7 cells assessed as induction of AR protein degradation by measuring AR protein level at 10 uM incubated for 8 hrs by western blot analysis relative to lamin B
[9] = biological target: T3, Protein cereblon/Aryl hydrocarbon receptor; test: Protac activity at CRBN/AhR in human MCF7 cells assessed as induction of AhR protein degradation by measuring AhR protein level at 20 uM incubated for 24 hrs by western blot analysis relative to lamin B; conditions: mcf7, 24 h
[10] = biological target: T1, Protein cereblon/Estrogen receptor (Homo sapiens); test: Protac activity at CRBN/ERalpha in human MCF7 cells assessed as induction of ERalpha protein degradation by measuring ERalpha protein level at 5 uM incubated for 8 hrs by western blot analysis relative to lamin B
[11] = biological target: T1, Protein cereblon/Estrogen receptor (Homo sapiens); test: Protac activity at CRBN/ERalpha in human MCF7 cells assessed as induction of ERalpha protein degradation incubated for 8 to 24 hrs by western blot analysis; conditions: time hrs 8-24
[12] = biological target: T2, Protein cereblon/Androgen receptor (Homo sapiens); test: Protac activity at CRBN/AR in human MCF7 cells assessed as induction of AR protein degradation by measuring AR protein level at 20 uM incubated for 8 hrs by western blot analysis relative to lamin B
[13] = biological target: T1, Protein cereblon/Estrogen receptor (Homo sapiens); test: Protac activity at CRBN/ERalpha in human MCF7 cells assessed as induction of ERalpha protein degradation by measuring ERalpha protein level at 20 uM incubated for 24 hrs by western blot analysis relative to lamin B
[14] = biological target: T2, Protein cereblon/Androgen receptor (Homo sapiens); test: Protac activity at CRBN/AR in human MCF7 cells assessed as induction of AR protein degradation by measuring AR protein level at 20 uM incubated for 8 hrs in presence of proteasome inhibitor, MG132 by western blot analysis relative to lamin B
[15] = biological target: T3, Protein cereblon/Aryl hydrocarbon receptor; test: Protac activity at CRBN/AhR in human MCF7 cells assessed as induction of AhR protein degradation by measuring AhR protein level at 5 uM incubated for 24 hrs by western blot analysis relative to lamin B; conditions: mcf7, 24 h
[16] = biological target: T2, Protein cereblon/Androgen receptor (Homo sapiens); test: Protac activity at CRBN/AR in human MCF7 cells assessed as induction of AR protein degradation incubated for 8 to 24 hrs by western blot analysis; conditions: time hrs 8-24
[17] = biological target: T2, Protein cereblon/Androgen receptor (Homo sapiens); test: Protac activity at CRBN/AR in CRBN siRNA-transfected human MCF7 cells assessed as induction of AR protein degradation by measuring AR protein level at 20 uM incubated for 8 hrs by western blot analysis relative to lamin B
[18] = biological target: T3, Protein cereblon/Aryl hydrocarbon receptor; test: Protac activity at CRBN/AhR in human MCF7 cells assessed as induction of AhR protein degradation by measuring AhR protein level at 10 uM incubated for 24 hrs by western blot analysis relative to lamin B; conditions: mcf7, 24 h
[19] = biological target: T1, Protein cereblon/Estrogen receptor (Homo sapiens); test: Protac activity at CRBN/ERalpha in human MCF7 cells assessed as induction of ERalpha protein degradation by measuring ERalpha protein level at 20 uM incubated for 8 hrs by western blot analysis relative to lamin B
[20] = biological target: T3, Protein cereblon/Aryl hydrocarbon receptor; test: Protac activity at CRBN/AhR in human MCF7 cells assessed as induction of AhR protein degradation by measuring AhR protein level at 20 uM incubated for 8 hrs in presence of ubiquitin activating inhibitor MLN7243 by western blot analysis relative to lamin B; conditions: mcf7, 8 h
[21] = biological target: T2, Protein cereblon/Androgen receptor (Homo sapiens); test: Protac activity at CRBN/AR in human MCF7 cells assessed as induction of AR protein degradation by measuring AR protein level at 5 uM incubated for 24 hrs by western blot analysis relative to lamin B
[22] = biological target: T2, Protein cereblon/Androgen receptor (Homo sapiens); test: Protac activity at CRBN/AR in human MCF7 cells assessed as induction of AR protein degradation by measuring AR protein level at 20 uM incubated for 8 hrs in presence of ubiquitin activating inhibitor MLN7243 by western blot analysis relative to lamin B
[23] = biological target: T1, Protein cereblon/Estrogen receptor (Homo sapiens); test: Protac activity at CRBN/ERalpha in human MCF7 cells assessed as induction of ERalpha protein degradation by measuring ERalpha protein level at 10 uM incubated for 8 hrs by western blot analysis relative to lamin B
[24] = biological target: T2, Protein cereblon/Androgen receptor (Homo sapiens); test: Protac activity at CRBN/AR in human MCF7 cells assessed as induction of AR protein degradation by measuring AR protein level at 20 uM incubated for 24 hrs by western blot analysis relative to lamin B
[25] = biological target: T3, Protein cereblon/Aryl hydrocarbon receptor; test: Protac activity at CRBN/AhR in human MCF7 cells assessed as induction of AhR protein degradation by measuring AhR protein level at 10 uM incubated for 8 hrs by western blot analysis relative to lamin B; conditions: mcf7, 8 h
[26] = biological target: T1, Protein cereblon/Estrogen receptor (Homo sapiens); test: Protac activity at CRBN/ERalpha in human MCF7 cells assessed as induction of ERalpha protein degradation by measuring ERalpha protein level at 5 uM incubated for 24 hrs by western blot analysis relative to lamin B
[27] = biological target: T1, Protein cereblon/Estrogen receptor (Homo sapiens); test: Protac activity at CRBN/ERalpha in human MCF7 cells assessed as induction of ERalpha protein degradation by measuring ERalpha protein level at 20 uM incubated for 8 hrs in presence of proteasome inhibitor, MG132 by western blot analysis relative to lamin B
[28] = biological target: T1, Protein cereblon/Estrogen receptor (Homo sapiens); test: Protac activity at CRBN/ERalpha in human MCF7 cells assessed as induction of ERalpha protein degradation by measuring ERalpha protein level at 10 uM incubated for 24 hrs by western blot analysis relative to lamin B

How did the Activity [1] turn out when `CC[C@H](C)[C@@H]1NC(=O)[C@H](NC(=O)[C@@H](N)CCCCNC(=O)CCOCCOCCOCCOCCOCCNc2cccc3c2C(=O)N(C2CCC(=O)NC2=O)C3=O)CSSC[C@@H](C(=O)N[C@@H](CCCNC(=N)N)C(=O)N[C@@H](CC(C)(C)C)C(=O)N[C@@H](CC(C)C)C(=O)N[C@@H](CCC(N)=O)C(=O)NCC(=O)NCC(=O)NCC(=O)N[C@@H](CCCNC(=N)N)C(=O)N[C@@H](CCCNC(=N)N)C(=O)N[C@@H](CCCNC(=N)N)C(=O)N[C@@H](CCCNC(=N)N)C(=O)N[C@@H](CCCNC(=N)N)C(=O)N[C@@H](CCCNC(=N)N)C(=O)N[C@@H](CCCNC(=N)N)C(N)=O)NC(=O)[C@H](CC(C)C)NC1=O` (stereo partly drawn) was run?
The Activity was 93%.

And the Activity [2]?
The Activity was 117%.

What about the Activity [3] of the same compound?
The Activity was 97%.

What about the Activity [4] of the same compound?
The Activity was 115%.

What about the Activity [5] of the same compound?
The Activity was 89%.

And the Activity [6]?
Its Activity is 124%.

What about the Activity [7] of the same compound?
The Activity was 123%.

What about the Activity [8] of the same compound?
The Activity was 80%.

And the Activity [9]?
The Activity was 133%.

What about the Activity [10] of the same compound?
Its Activity is 108%.

And the Activity [11]?
Its Activity is “Dose-dependent effect”.

And the Activity [12]?
Its Activity is 51%.

What about the Activity [13] of the same compound?
Its Activity is 51%.

And the Activity [14]?
The Activity was 92%.

What about the Activity [15] of the same compound?
The Activity was 101%.

And the Activity [16]?
The Activity was “Dose-dependent effect”.

What about the Activity [17] of the same compound?
The Activity was 93%.

What about the Activity [18] of the same compound?
The Activity was 111%.

What about the Activity [19] of the same compound?
Its Activity is 57%.

And the Activity [20]?
Its Activity is 107%.

And the Activity [21]?
The Activity was 84%.

What about the Activity [22] of the same compound?
The Activity was 119%.

And the Activity [23]?
Its Activity is 85%.

And the Activity [24]?
The Activity was 79%.

What about the Activity [25] of the same compound?
Its Activity is 123%.

What about the Activity [26] of the same compound?
Its Activity is 85%.

What about the Activity [27] of the same compound?
Its Activity is 78%.

What about the Activity [28] of the same compound?
The Activity was 64%.
